Measurements from ChEMBL document CHEMBL1201862, “PubChem BioAssay data set” (2004).
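All cell lines were grown in 96-well plates and treated with compound for 48 hours. GI50: concentration for 50% inhibition of growth.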 Active and inactive are the calls of the source. No stated cut-off is given here; in the data, active = GI50 up to about 1.1 µM and inactive = higher.

Key:
Assay in all cases: NCI-60 cell line screen, 48 h
[1] = tested on: SN12C
[2] = tested on: SF-268
[3] = tested on: SK-MEL-28
[4] = tested on: OVCAR-5
[5] = tested on: TK-10
[6] = tested on: SK-MEL-2
[7] = tested on: RPMI-8226
[8] = tested on: NCI-H522
[9] = tested on: OVCAR-4
[10] = tested on: Malme-3M
[11] = tested on: SK-OV-3
[12] = tested on: LOX IMVI
[13] = tested on: RXF 393
[14] = tested on: SF-295
[15] = tested on: T47D
[16] = tested on: MDA-MB-435
[17] = tested on: MDA-MB-231
[18] = tested on: NCI/ADR-RES
[19] = tested on: DU-145

Measured: GI50

NC(=O)c1ncn(C2OC(CO)C(O)C2O)c1NC(=S)NC(=O)c1ccccc1 (stereo unspecified)
inactive: [1] > 100 µM | [2] > 100 µM | [3] > 100 µM | [4] > 100 µM | [5] > 100 µM | [6] > 100 µM | [7] > 100 µM | [8] > 100 µM | [9] > 100 µM | [10] > 100 µM | [11] > 100 µM | [12] > 100 µM | [13] > 100 µM | [14] > 100 µM

O=C1C(Cl)N(c2c(Cl)cccc2Cl)C1c1c[nH]c2ccccc12 (stereo unspecified)
inactive: [1] > 100 µM | [2] > 100 µM | [3] > 100 µM | [4] > 100 µM | [5] > 100 µM | [6] > 100 µM | [7] > 100 µM | [8] > 100 µM | [9] > 100 µM | [10] 36.3 µM | [11] > 100 µM | [13] > 100 µM | [14] > 100 µM

CCCc1onc(CCC(=O)N(Cc2ccccc2)Cc2ccccc2)c1CC
inactive: [1] > 100 µM | [2] > 100 µM | [4] > 100 µM | [6] > 100 µM | [7] > 100 µM | [8] > 100 µM | [9] > 100 µM | [10] > 100 µM | [11] > 100 µM | [12] > 100 µM | [14] > 100 µM

Cc1cc(C)nc(NS(=O)(=O)c2ccc(Nc3c4ccccc4nc4c(C(=O)N5CCN(CCOS(C)(=O)=O)CC5)ccc(Cl)c34)cc2)n1
inactive: [1] > 100 µM | [2] > 100 µM | [3] > 100 µM | [4] > 100 µM | [5] 54.1 µM | [6] > 100 µM | [7] > 100 µM | [9] > 100 µM | [10] > 100 µM | [11] > 100 µM | [13] > 100 µM | [14] > 100 µM

O=C(O)CCC(=O)N1c2ccccc2CC1c1c[nH]c2ccccc12 (stereo unspecified)
inactive: [1] > 100 µM | [2] > 100 µM | [3] > 100 µM | [4] > 100 µM | [5] > 100 µM | [6] > 100 µM | [7] > 100 µM | [8] 76.6 µM | [9] > 100 µM | [10] > 100 µM | [11] > 100 µM | [12] > 100 µM | [13] > 100 µM | [14] > 100 µM

CN(C)S(=O)(=O)n1cnc(CO)c1
inactive: [1] > 100 µM | [2] > 100 µM | [3] > 100 µM | [4] > 100 µM | [5] > 100 µM | [6] > 100 µM | [15] > 100 µM | [7] > 100 µM | [8] > 100 µM | [16] > 100 µM | [9] > 100 µM | [17] > 100 µM | [18] > 100 µM | [10] > 100 µM | [11] > 100 µM | [12] > 100 µM | [13] > 100 µM | [14] > 100 µM

COc1cc(CCc2ccc(OCCN(C)C)cc2)cc(OC)c1OC
inactive: [1] > 100 µM | [2] > 100 µM | [3] > 100 µM | [4] 33.8 µM | [5] 78.9 µM | [7] 28.6 µM | [8] 83.8 µM | [9] > 100 µM | [10] 93.3 µM | [12] 34.8 µM | [13] 41.8 µM | [14] > 100 µM

CCCCCCCCCCCC1CCCC(C)N1 (stereo unspecified)
inactive: [1] 53.1 µM | [2] 67.9 µM | [3] 76.6 µM | [4] 80 µM | [6] 72.1 µM | [7] 23.2 µM | [8] 35.9 µM | [9] 61.2 µM | [18] 72.4 µM | [10] 90.4 µM | [11] 75.2 µM | [12] 18.2 µM | [13] 35.8 µM | [14] 77.8 µM

C[C@@]12CC[C@H]3[C@@H]4CCC(=O)N[C@@]4(C)CC[C@@H]3[C@@]1(C)CC[C@H](OC(=O)Cc1ccc(N(CCCl)CCCl)cc1)C2
inactive: [1] 14.2 µM | [2] 15.8 µM | [3] 18.4 µM | [4] 17.3 µM | [6] 51.1 µM | [7] 18.4 µM | [8] 17.7 µM | [9] 18.2 µM | [18] 18.3 µM | [10] 19.5 µM | [11] 14.1 µM | [12] 13.8 µM | [13] 16.5 µM | [14] 17.5 µM

O=c1[nH]nc(NNc2ccccc2)c2nnn(C3CCCCC3)c12
inactive: [1] > 100 µM | [3] > 100 µM | [4] > 100 µM | [5] > 100 µM | [6] > 100 µM | [7] > 100 µM | [16] > 100 µM | [9] > 100 µM | [17] > 100 µM | [18] > 100 µM | [10] > 100 µM | [12] > 100 µM | [14] > 100 µM | [19] > 100 µM

CCOC(=O)CCC(NC(=O)OCc1ccccc1)C(=O)NC(CCC(=O)OCC)C(=O)NC(CCC(=O)OCC)C(=O)NC(CCC(=O)OCC)C(=O)NC(CCC(=O)OCC)C(=O)NC(CCC(=O)OCC)C(=O)NC(CCC(=O)OCC)C(=O)OCC (stereo unspecified)
inactive: [1] > 100 µM | [2] > 100 µM | [3] > 100 µM | [4] > 100 µM | [5] > 100 µM | [6] > 100 µM | [15] > 100 µM | [7] > 100 µM | [8] 43.5 µM | [16] > 100 µM | [9] > 100 µM | [17] > 100 µM | [10] 90.6 µM | [12] > 100 µM | [19] > 100 µM

CCCCCCCCCCCCCCCCNCCCN(C)CCCN
inactive: [1] 20 µM | [2] 18.7 µM | [3] 13.4 µM | [4] 16.4 µM | [5] 15 µM | [6] 20.8 µM | [7] 20.2 µM | [8] 17.3 µM | [9] 18.8 µM | [11] 17.3 µM | [12] 19.9 µM | [14] 17.9 µM

Cn1c(=O)nc2n(-c3ccc(F)cc3)c3ccccc3nc-2c1=O
inactive: [1] 20.5 µM | [2] 28.2 µM | [4] 24.3 µM | [5] 26.5 µM | [6] 19 µM | [7] 25.2 µM | [8] 16.1 µM | [9] 14.4 µM | [10] 10.5 µM | [11] > 100 µM | [13] 23.8 µM | [14] 18.7 µM

CC1=C(Oc2ccccc2)C(CCC(=O)O)c2c(O)cc(Cl)c(O)c21 (stereo unspecified)
inactive: [1] > 100 µM | [2] > 100 µM | [3] > 100 µM | [5] > 100 µM | [6] > 100 µM | [7] > 100 µM | [8] > 100 µM | [9] > 100 µM | [12] > 100 µM | [13] > 100 µM | [14] > 100 µM
